This is an account of results in patent publication US4221705A, “Novel peptide type antibiotic and the process for the production thereof” (priority 1977, dated 1980).

As usually defined, the LD50 is the dose at which mortality reaches 50%.

The nature of this data set: Acute Toxic characters (Mouse LD50). Particulars: HCl salt; for Mouse LD50: female; for LD50: mouse, in vivo, male. In kind it is in vivo.
Setting [1] is: ip, Intraperitoneal Administration.
Setting [2] is: sc, Subcutaneous Administration.

A value given as a limit tells only on which side of the number the result lay.

Turning to `C[C@@H](O)[C@H](NC(=O)[C@@H](CCCN)NC(=O)[C@H](CC(O)CNC(=N)N)NC(=O)[C@@H](N)CCCNC(=N)N)C(=O)N[C@H](CCCN)C(=O)N[C@@H](CC(O)CNC(=N)N)C(=O)N[C@H](Cc1ccc(O)cc1)C(=O)O` (single isomer, unassigned) [L-ARG--L-(ARG(OH)--D-ORN--L-THR--D-ORN--L-ARG(OH)--D-TYR], the “Mouse LD50” value lay in the range of 43.2 to 57.2 mg/kg (Intraperitoneal Administration), 24.1 to 34.8 mg/kg (Intravenous Administration), 2400 to 3000 mg/kg (Oral Administration) and 104 to 125 mg/kg (Subcutaneous Administration). In addition, the LD50 runs as follows: under setting [1], 43.2 to 57.2 mg/kg; under setting [2], 86.8 to 104 mg/kg; (Intravenous Administration) 24.1 to 34.8 mg/kg; (Oral Administration) 2400 to 3000 mg/kg.
As for `C[C@@H](O)[C@H](NC(=O)[C@@H](CCCN)NC(=O)[C@H](CC(O)CNC(=N)N)NC(=O)[C@@H](N)CCCNC(=N)N)C(=O)N[C@H](CCCN)C(=O)N[C@@H](CCCCN)C(=O)N[C@H](Cc1ccc(O)cc1)C(=O)O` (single isomer, unassigned) [L-ARG--L-ARG(OH)--D-ORN--L-THR--D-ORN--L-Lys--D-TYR], the “Mouse LD50” value runs as follows: (Intraperitoneal Administration) “above 300 mg/kg”; (Intravenous Administration) 144 to 1728 mg/kg; (Oral Administration) “above 6000 mg/kg”; (Subcutaneous Administration) not below 320 mg/kg. Also, the LD50 by setting is: under setting [1], more than 300 mg/kg; under setting [2], not below 320 mg/kg; (Intravenous Administration) 120 to 144 mg/kg; (Oral Administration) more than 6000 mg/kg.
